Here are results for 17 compounds from patent US20250346600A1, “TRICYCLIC DERIVATIVES AND RELATED USES” (MOMA Therapeutics, Inc., priority 2023, published 2025).

Where two headings read alike, the source gives them in different places.

One experiment relates to HCT116 cells. Put plainly: HCT116 (MSI) 7 day viability, CellTiter Glo. Type of experiment: cell-based. The following applies: 7 days, read-out: HCT116 (MSI) Viability 7 Day Abs AC50. Here is the method: (§1) Compounds were dissolved in DMSO to a concentration of 10 mM. Compounds were then serially diluted in 10 3-fold steps in DMSO using an EVO (Tecan). Plates were then spun down for 1 minute at 1,000 RPM at room temperature.
(§2) The colon carcinoma lines HCT116 (RRID: CVCL_0291) and HT29 (RRID: CVCL_0320) were obtained from ATCC. […] All cells were maintained at 37° C. with 5% CO2 incubator.
(§3) After harvesting, cells were spun down for 5 minutes at 1200 RPM. Cells were resuspended in 10 mL of growth media and counted using Countess (Thermo Fisher). Cell concentrations were adjusted to 50 cells/well for HCT116 and 500 cells/well for HT29. 50 μL of diluted cells were added to compound treated 384 well plates using a 12 channel, 300 uL electronic handheld pipette (Integra). Cell treated plates were placed in 37 C with 5% CO2 incubator for 7 days.
(§4) Afterwards, cells were removed from incubator and equilibrated to room temperature for 15 minutes. 35 uL of CellTiter Glo (Promega #G7573) reagent were added to each well using a 12 channel, 300 uL electronic handheld pipette (Integra). Plates were incubated for 20 minutes at room temperature. Luminescence quantification was performed using Envision (PerkinElmer).
(§5) For data analysis, the assay background signal was determined in wells containing medium, but no cells. Potencies were calculated by linear least squares fit to the four-parameter logistic IC50 equation. The reported IC50 values are the geometrical mean of at least 2 independent replicates.

A further experiment concerns HT29 cells. Put plainly: HT29 (MSS) 7 day viability, CellTiter Glo. Type of experiment: cell-based. The following applies: 7 days, read-out: HT29 (MSS) Viability 7 Day CTGAbs AC50. Here is the method:
as §1, §2, §3, §4, §5

The target of experiment [1] is Full length WRN protein (aa 2-1432) (Homo sapiens (Human), UniProt Q14191). Briefly: WRN ATPase ADP-Glo biochemical assay, Assay Format B (100 μM ATP). The conditions noted are these: 0.25 nM WRN, 100 nM C6.18 ssDNA, 60 min preincubation, read-out: ATPase ADPGlo AC50 (uM)- Assay Format B.
Full length WRN protein (aa 2-1432), sequence (Q14191 2-1432): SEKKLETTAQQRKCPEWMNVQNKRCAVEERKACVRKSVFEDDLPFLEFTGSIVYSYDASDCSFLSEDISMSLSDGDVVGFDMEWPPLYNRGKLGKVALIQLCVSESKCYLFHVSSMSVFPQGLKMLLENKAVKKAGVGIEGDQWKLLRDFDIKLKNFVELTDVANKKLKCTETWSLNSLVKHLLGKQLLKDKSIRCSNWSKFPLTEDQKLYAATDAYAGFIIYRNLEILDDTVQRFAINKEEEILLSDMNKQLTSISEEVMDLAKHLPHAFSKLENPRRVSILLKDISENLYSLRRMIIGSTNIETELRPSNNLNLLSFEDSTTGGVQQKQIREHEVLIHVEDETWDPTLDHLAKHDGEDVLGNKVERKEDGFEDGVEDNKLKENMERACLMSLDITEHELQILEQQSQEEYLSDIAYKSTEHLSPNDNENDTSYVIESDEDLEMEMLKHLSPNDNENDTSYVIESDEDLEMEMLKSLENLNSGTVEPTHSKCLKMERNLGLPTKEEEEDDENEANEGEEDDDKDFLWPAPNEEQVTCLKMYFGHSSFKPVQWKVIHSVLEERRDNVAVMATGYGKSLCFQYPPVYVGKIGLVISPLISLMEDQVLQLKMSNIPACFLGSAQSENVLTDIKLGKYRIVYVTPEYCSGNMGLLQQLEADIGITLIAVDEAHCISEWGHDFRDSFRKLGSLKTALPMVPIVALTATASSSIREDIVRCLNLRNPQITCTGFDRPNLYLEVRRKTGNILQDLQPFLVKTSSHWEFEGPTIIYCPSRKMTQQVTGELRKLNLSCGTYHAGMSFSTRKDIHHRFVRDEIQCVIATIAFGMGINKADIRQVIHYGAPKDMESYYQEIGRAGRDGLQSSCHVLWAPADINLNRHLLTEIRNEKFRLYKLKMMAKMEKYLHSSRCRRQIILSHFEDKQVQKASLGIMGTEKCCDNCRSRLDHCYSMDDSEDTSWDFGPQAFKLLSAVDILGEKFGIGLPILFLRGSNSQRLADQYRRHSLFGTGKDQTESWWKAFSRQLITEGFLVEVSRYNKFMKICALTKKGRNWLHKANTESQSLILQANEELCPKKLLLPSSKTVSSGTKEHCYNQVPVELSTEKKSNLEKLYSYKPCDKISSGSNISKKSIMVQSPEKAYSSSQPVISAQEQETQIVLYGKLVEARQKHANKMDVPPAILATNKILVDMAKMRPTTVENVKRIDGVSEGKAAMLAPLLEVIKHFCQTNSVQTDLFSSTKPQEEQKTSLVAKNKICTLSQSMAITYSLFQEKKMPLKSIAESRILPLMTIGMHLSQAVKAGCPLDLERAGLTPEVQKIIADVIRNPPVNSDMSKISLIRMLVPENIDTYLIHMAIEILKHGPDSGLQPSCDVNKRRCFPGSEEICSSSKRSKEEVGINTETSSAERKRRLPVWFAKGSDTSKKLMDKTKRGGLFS

For “1-(5-(7-bromo-1H- benzo[d]imidazole-4- carbonyl)-2-(4- cyclobutylphenyl)- 2,3,4,5,5a,6-hexahydro- 1,2,5,7- tetraazaspiro[benzo[cd] azulene-9,1′- cyclopropan]-1(9a),2a- dien-7(8H)-yl)prop-2-en- 1-one [Compound 169]”, the results for the concentration at half-maximal activity (AC50) in the experiment with HCT116 cells and in the experiment with HT29 cells were 1 to 100 nM and greater than 3000 nM, respectively.

With `C=CC(=O)N1CCc2nn(-c3ccc(C(C)C)c(F)c3O)c3c2C(C1)N(C(=O)c1cnc(C(F)(F)F)c(O)c1)CC3` (stereo not shown) [Compound 64, 1-(2-(3-fluoro-2-hydroxy-4-isopropylphenyl)-5-(5-hydroxy-6-(trifluoromethyl)nicotinoyl)-2,3,4,5,5a,6,8,9-octahydro-7H-1,2,5,7-tetraazabenzo[cd]azulen-7-yl)prop-2-en-1-one], the AC50 in experiment [1] was 0.015 to 0.055 µM; in the experiment with HCT116 cells (Homo sapiens, HCT-116, 168 h), 1 to 100 nM; in the experiment with HT29 cells (Homo sapiens, HT-29, 168 h) it was greater than 3000 nM.

With `C=CC(=O)N1CCc2nn(-c3ccc(C4CCC4)c(F)c3N)c3c2C(C1)N(C(=O)c1cnc(C(F)(F)F)c(O)c1)CC3` (stereo not shown) [Compound 71, 1-(2-(2-amino-4-cyclobutyl-3-fluorophenyl)-5-(5-hydroxy-6-(trifluoromethyl)nicotinoyl)-2,3,4,5,5a,6,8,9-octahydro-7H-1,2,5,7-tetraazabenzo[cd]azulen-7-yl)prop-2-en-1-one], the AC50 in experiment [1] is 0.005 to 0.015 µM; with HCT116 cells (Homo sapiens, HCT-116, 168 h), 1 to 100 nM; with HT29 cells (Homo sapiens, HT-29, 168 h), greater than 3000 nM.

Regarding `C=CC(=O)N1CCc2nn(-c3ccc(C4CCC4)cc3O)c3c2C(C1)N(C(=O)c1ccc(C(F)(F)F)nc1N)CC3` (stereo not shown) [Compound 76, 1-(5-(2-amino-6-(trifluoromethyl)nicotinoyl)-2-(4-cyclobutyl-2-hydroxyphenyl)-2,3,4,5,5a,6,8,9-octahydro-7H-1,2,5,7-tetraazabenzo[cd]azulen-7-yl)prop-2-en-1-one], the concentration at half-maximal activity (AC50) in experiment [1] was 0.005 to 0.015 µM; with HCT116 cells (Homo sapiens, HCT-116, 168 h), 1 to 100 nM; in the experiment with HT29 cells (Homo sapiens, HT-29, 168 h), greater than 3000 nM.

Take `C=CC(=O)N1CCc2nn(-c3ccc(C4CCC4)cc3O)c3c2C(C1)N(C(=O)c1ccc(Br)c2[nH]c(OC(F)F)nc12)CC3` (stereo not shown) [Compound 88, 1-(5-(7-bromo-2-(difluoromethoxy)-1H-benzo[d]imidazole-4-carbonyl)-2-(4-cyclobutyl-2-hydroxyphenyl)-2,3,4,5,5a,6,8,9-octahydro-7H-1,2,5,7-tetraazabenzo[cd]azulen-7-yl)prop-2-en-1-one]: the AC50 in experiment [1] is 0.005 to 0.015 µM; with HCT116 cells (Homo sapiens, HCT-116, 168 h) it was 1 to 100 nM; in the experiment with HT29 cells (Homo sapiens, HT-29, 168 h), greater than 3000 nM.

On to `C=CC(=O)N1CCc2nn(-c3ccc(C4CCC4)cc3O)c3c2C(C1)N(C(=O)c1cnc(Br)c(OC(F)F)c1)CC3` (stereo not shown) [Compound 94, 1-(5-(6-bromo-5-(difluoromethoxy)nicotinoyl)-2-(4-cyclobutyl-2-hydroxyphenyl)-2,3,4,5,5a,6,8,9-octahydro-7H-1,2,5,7-tetraazabenzo[cd]azulen-7-yl)prop-2-en-1-one], for which the half-maximal activity concentration (AC50) is 0.015 to 0.055 µM in experiment [1]; 1 to 100 nM with HCT116 cells (Homo sapiens, HCT-116, 168 h); greater than 3000 nM in the experiment on HT29 cells (Homo sapiens, HT-29, 168 h).

With `C=CC(=O)N1CCOc2nn(-c3ccc(C(C)C)c(O)n3)c3c2C(C1)N(C(=O)c1ccc(Br)c2[nH]cnc12)CC3` (stereo not shown) [Compound 105, 1-(5-(7-bromo-1H-benzo[d]imidazole-4-carbonyl)-2-(6-hydroxy-5-isopropylpyridin-2-yl)-2,3,4,5,5a,6,8,9-octahydro-7H-10-oxa-1,2,5,7-tetraazacycloocta[cd]inden-7-yl)prop-2-en-1-one], the AC50 in the experiment on HCT116 cells (Homo sapiens, HCT-116, 168 h) was greater than 1000 nM; in the experiment with HT29 cells (Homo sapiens, HT-29, 168 h), greater than 3000 nM.

Regarding `C=CC(=O)N1CCc2nn(-c3ccc(C4CCC4)cc3O)c3c2C(C1)N(C(=O)c1cnc(Br)cc1N)CC3` (stereo not shown) [Compound 132, 1-(5-(4-amino-6-bromonicotinoyl)-2-(4-cyclobutyl-2-hydroxyphenyl)-2,3,4,5,5a,6,8,9-octahydro-7H-1,2,5,7-tetraazabenzo[cd]azulen-7-yl)prop-2-en-1-one], the AC50 in experiment [1] is 0.0015 to 0.005 µM; in the experiment with HCT116 cells (Homo sapiens, HCT-116, 168 h), 1 to 100 nM; in the experiment on HT29 cells (Homo sapiens, HT-29, 168 h), greater than 3000 nM.

Take `C=CC(=O)N1CCc2nn(-c3ccc(C4CCC4)cc3O)c3c2C(C1)N(C(=O)c1cnc(Cl)c(O)c1)CC3` (stereo not shown) [Compound 140, 1-(5-(6-chloro-5-hydroxynicotinoyl)-2-(4-cyclobutyl-2-hydroxyphenyl)-2,3,4,5,5a,6,8,9-octahydro-7H-1,2,5,7-tetraazabenzo[cd]azulen-7-yl)prop-2-en-1-one]: the AC50 was 0.005 to 0.015 µM in experiment [1]; 1 to 100 nM with HCT116 cells (Homo sapiens, HCT-116, 168 h); greater than 3000 nM with HT29 cells (Homo sapiens, HT-29, 168 h).

Regarding `C=CC(=O)N1CCc2nn(-c3ccc(C4CCC4)cc3)c3c2C(C1)N(C(=O)c1ccc(C(F)(F)F)c2[nH]nc(N)c12)CC3` (stereo not shown) [Compound 147, 1-(5-(3-amino-7-(trifluoromethyl)-1H-indazole-4-carbonyl)-2-(4-cyclobutylphenyl)-2,3,4,5,5a,6,8,9-octahydro-7H-1,2,5,7-tetraazabenzo[cd]azulen-7-yl)prop-2-en-1-one], the AC50 in experiment [1] is 0.005 to 0.015 µM; with HCT116 cells (Homo sapiens, HCT-116, 168 h), 1 to 100 nM; in the experiment on HT29 cells (Homo sapiens, HT-29, 168 h), greater than 3000 nM.

As to `C=CC(=O)N1CCc2nn(-c3ccc(C4CCC4)cc3O)c3c2C(C1)N(C(=O)c1cnc(OC(F)F)cc1N)CC3` (stereo not shown) [Compound 164, 1-(5-(4-amino-6-(difluoromethoxy)nicotinoyl)-2-(4-cyclobutyl-2-hydroxyphenyl)-2,3,4,5,5a,6,8,9-octahydro-7H-1,2,5,7-tetraazabenzo[cd]azulen-7-yl)prop-2-en-1-one], the AC50 was 0.0015 to 0.005 µM in experiment [1]; 1 to 100 nM in the experiment on HCT116 cells (Homo sapiens, HCT-116, 168 h); greater than 3000 nM with HT29 cells (Homo sapiens, HT-29, 168 h).

On to `C=CC(=O)N1CCc2nn(-c3ccc(C4CCC4)cc3O)c3c2C(C1)N(C(=O)c1cc(F)c(C(F)(F)F)nc1N)CC3` (stereo not shown) [Compound 165, 1-(5-(2-amino-5-fluoro-6-(trifluoromethyl)nicotinoyl)-2-(4-cyclobutyl-2-hydroxyphenyl)-2,3,4,5,5a,6,8,9-octahydro-7H-1,2,5,7-tetraazabenzo[cd]azulen-7-yl)prop-2-en-1-one], for which the AC50 in experiment [1] was 0.015 to 0.055 µM; in the experiment on HCT116 cells (Homo sapiens, HCT-116, 168 h) it was 1 to 100 nM; with HT29 cells (Homo sapiens, HT-29, 168 h) it was greater than 3000 nM.

Regarding `C=CC(=O)N1CCc2nn(-c3ccc(C(C)C)cc3)c3c2C(C1C)N(C(=O)c1cnc(C(F)(F)F)cc1N)CC3` (stereo not shown) [Compound 168, 1-(5-(4-amino-6-(trifluoromethyl)nicotinoyl)-2-(4-isopropylphenyl)-6-methyl-2,3,4,5,5a,6,8,9-octahydro-7H-1,2,5,7-tetraazabenzo[cd]azulen-7-yl)prop-2-en-1-one], the AC50 is 0.005 to 0.015 µM in experiment [1]; 1 to 100 nM in the experiment on HCT116 cells (Homo sapiens, HCT-116, 168 h); greater than 3000 nM in the experiment with HT29 cells (Homo sapiens, HT-29, 168 h).

With `C=CC(=O)N1CCc2nn(-c3ccc(C4CCC4)cc3C#N)c3c2C(C1)N(C(=O)c1cnc(C(F)(F)F)cc1N)CC3` (stereo not shown) [Compound 171, 2-(7-acryloyl-5-(4-amino-6-(trifluoromethyl)nicotinoyl)-3,4,5,5a,6,7,8,9-octahydro-2H-1,2,5,7-tetraazabenzo[cd]azulen-2-yl)-5-cyclobutylbenzonitrile], the AC50 is 0.015 to 0.055 µM in experiment [1]; 1 to 100 nM in the experiment on HCT116 cells (Homo sapiens, HCT-116, 168 h); greater than 3000 nM in the experiment with HT29 cells (Homo sapiens, HT-29, 168 h).

`C=CC(=O)N1CCc2nn(-c3ccc(C4CC4)cc3O)c3c2C(C1)N(C(=O)c1ccc(C(F)(F)F)nc1N)CC3` (stereo not shown) [Compound 172, 1-(5-(2-amino-6-(trifluoromethyl)nicotinoyl)-2-(4-cyclopropyl-2-hydroxyphenyl)-2,3,4,5,5a,6,8,9-octahydro-7H-1,2,5,7-tetraazabenzo[cd]azulen-7-yl)prop-2-en-1-one]: the AC50 was 0.005 to 0.015 µM in experiment [1]; 1 to 100 nM with HCT116 cells (Homo sapiens, HCT-116, 168 h); greater than 3000 nM with HT29 cells (Homo sapiens, HT-29, 168 h).

In the case of `C=CC(=O)N1CCc2nn(-c3ccc(C(C)C)cc3O)c3c2C(C1)N(C(=O)c1ccc(C(F)(F)F)nc1N)CC3` (stereo not shown) [Compound 173, 1-(5-(2-amino-6-(trifluoromethyl)nicotinoyl)-2-(2-hydroxy-4-isopropylphenyl)-2,3,4,5,5a,6,8,9-octahydro-7H-1,2,5,7-tetraazabenzo[cd]azulen-7-yl)prop-2-en-1-one], the half-maximal activity concentration (AC50) is 0.005 to 0.015 µM in experiment [1]; 1 to 100 nM in the experiment on HCT116 cells (Homo sapiens, HCT-116, 168 h); greater than 3000 nM in the experiment with HT29 cells (Homo sapiens, HT-29, 168 h).

As for `C=CC(=O)N1CCc2nn(-c3ccc(C4CC4)cc3O)c3c2C(C1)N(C(=O)c1cnc(C(F)(F)F)c(O)c1)CC3` (stereo not shown) [Compound 175, 1-(2-(4-cyclopropyl-2-hydroxyphenyl)-5-(5-hydroxy-6-(trifluoromethyl)nicotinoyl)-2,3,4,5,5a,6,8,9-octahydro-7H-1,2,5,7-tetraazabenzo[cd]azulen-7-yl)prop-2-en-1-one], the AC50 in experiment [1] was 0.0015 to 0.005 µM; with HCT116 cells (Homo sapiens, HCT-116, 168 h), 100 to 250 nM; in the experiment with HT29 cells (Homo sapiens, HT-29, 168 h), greater than 3000 nM.
